Our source for the cryo-EM structure values is paper PMC7560712, “Analysis of translating mitoribosome reveals functional characteristics of translation in mitochondria of fungi” (Nature Communications, 2020).

Experiment [1] has as its target T1, mS29 (mitoribosomal small subunit) (Neurospora crassa, UniProt Q7SD06).
T1 construct: gene rsm23; native mS29 within the mtSSU of intact mitoribosomes purified from mycelia mitochondria; His-tag is on Oxa1 only
T1 sequence (Q7SD06 1-469): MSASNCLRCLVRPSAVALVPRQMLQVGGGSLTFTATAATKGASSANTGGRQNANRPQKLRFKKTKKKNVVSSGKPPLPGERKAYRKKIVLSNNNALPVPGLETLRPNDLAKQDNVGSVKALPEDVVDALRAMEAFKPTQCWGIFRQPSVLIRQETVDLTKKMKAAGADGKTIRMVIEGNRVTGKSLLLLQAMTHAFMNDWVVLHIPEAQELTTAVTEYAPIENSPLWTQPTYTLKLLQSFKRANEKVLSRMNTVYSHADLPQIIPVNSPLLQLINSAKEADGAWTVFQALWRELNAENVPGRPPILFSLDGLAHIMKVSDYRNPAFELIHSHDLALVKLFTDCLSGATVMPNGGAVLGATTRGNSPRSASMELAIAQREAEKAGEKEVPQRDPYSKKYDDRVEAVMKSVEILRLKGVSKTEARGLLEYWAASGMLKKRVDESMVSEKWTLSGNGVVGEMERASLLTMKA
The experiment can be described thus: cryo-EM structure. The format is binding. To be noted: co-purified endogenous nucleotide in P-loop pocket; assigned as ATP rather than GDP from density and chemical environment (Leu150); local resolution 2.77 A.

For experiment [2], the target named is T2, pocket formed by mL40, uL5m, and rRNA H84-ES3 (central protuberance of mtLSU) (Neurospora crassa, UniProt Q1K6P0+V5IQE0).
T2 construct: gene mrpl28; native proteins within the mtLSU of intact mitoribosomes; site also formed by 23S rRNA (H84-ES3, A2755, U2759)
T2 sequence (Q1K6P0 whole entry): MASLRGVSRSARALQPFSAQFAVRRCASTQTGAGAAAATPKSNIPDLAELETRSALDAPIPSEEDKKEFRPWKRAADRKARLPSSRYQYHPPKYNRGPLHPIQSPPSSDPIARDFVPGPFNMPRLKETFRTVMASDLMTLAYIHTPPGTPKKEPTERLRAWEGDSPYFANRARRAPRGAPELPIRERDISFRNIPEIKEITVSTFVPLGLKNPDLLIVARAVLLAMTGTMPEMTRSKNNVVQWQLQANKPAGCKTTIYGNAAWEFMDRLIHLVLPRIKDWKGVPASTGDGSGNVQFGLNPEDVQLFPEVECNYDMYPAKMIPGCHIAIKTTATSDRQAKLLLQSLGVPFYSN
T2 sequence (V5IQE0 whole entry): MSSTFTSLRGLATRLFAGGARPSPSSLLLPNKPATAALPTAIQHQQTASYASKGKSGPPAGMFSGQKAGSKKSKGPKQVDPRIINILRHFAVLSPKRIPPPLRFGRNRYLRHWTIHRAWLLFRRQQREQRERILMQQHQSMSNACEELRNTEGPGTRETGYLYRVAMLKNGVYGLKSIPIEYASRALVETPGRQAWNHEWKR
In words: cryo-EM structure. The conditions noted are these: co-purified endogenous ligand; assignment 'most likely'; Arg295 of mL40 stacks on nicotinamide; rRNA part of site; oxidation state not stated. The format is binding.

Turning to `Nc1ncnc2c1ncn2[C@@H]1O[C@H](COP(=O)(O)OP(=O)(O)OP(=O)(O)O)[C@@H](O)[C@H]1O` [ATP], the cryo-EM structure result in experiment [1] was “the correct assignment for the nucleotide is adenosine triphosphate (ATP)”.

`NC(=O)c1ccc[n+]([C@@H]2O[C@H](COP(=O)([O-])OP(=O)(O)OC[C@H]3O[C@@H](n4cnc5c(N)ncnc54)[C@H](O)[C@@H]3O)[C@@H](O)[C@H]2O)c1` [NAD]: in experiment [2], the cryo-EM structure result is given as “we conclude that it is most likely to be NAD”.
